Values joined by “and” are separate entries in the source; they are usually repeats but may differ in a detail not shown here. Equal values may be shown once. Toxic doses and inconclusive results are not listed.
System: BDF1 mice, P388 leukemia ip, median survival T/C
Assay: NCI In Vivo Anticancer Drug Screen. Data for tumor model P388 Leukemia (intraperitoneal) in B6D2F1 (BDF1) mice
Details: endpoint: median survival time, higher = longer survival
Procedure, shortened: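 Mice carrying the transplantable tumour receive compound or vehicle. Survival is followed in each arm, and the treated measure is divided by the vehicle measure.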

[1] = dose: 50.0 mg/kg/injection, schedule: Q01DX009 (ip), vehicle: saline with Tween-80
[2] = dose: 100.0 mg/kg/injection, schedule: Q01DX009 (ip), vehicle: saline with Tween-80
[3] = dose: 200.0 mg/kg/injection, schedule: Q01DX009 (ip), vehicle: saline with Tween-80
[4] = dose: 100.0 mg/kg/injection, schedule: Q04DX003 (ip), vehicle: saline with Tween-80
[5] = dose: 200.0 mg/kg/injection, schedule: Q04DX003 (ip), vehicle: saline with Tween-80
[6] = dose: 400.0 mg/kg/injection, schedule: Q04DX003 (ip), vehicle: saline with Tween-80
[7] = dose: 100.0 mg/kg/injection, schedule: Q04DX003 (ip), vehicle: Klucel (hydroxypropylcellulose) (HPC)
[8] = dose: 200.0 mg/kg/injection, schedule: Q04DX003 (ip), vehicle: Klucel (hydroxypropylcellulose) (HPC)
[9] = dose: 400.0 mg/kg/injection, schedule: Q04DX003 (ip), vehicle: Klucel (hydroxypropylcellulose) (HPC)
[10] = dose: 100.0 mg/kg/injection, schedule: Q01DX009 (ip), vehicle: Klucel (hydroxypropylcellulose) (HPC)
[11] = dose: 25.0 mg/kg/injection, schedule: Q01DX009 (ip), vehicle: saline
[12] = dose: 50.0 mg/kg/injection, schedule: Q01DX009 (ip), vehicle: saline
[13] = dose: 100.0 mg/kg/injection, schedule: Q01DX009 (ip), vehicle: saline

Which results are given for `COc1cc2c(cc1OC)C1CC(O)(c3nccc4cc(OC)c(OC)cc34)CCN1CC2` (stereo not given)?
T/C [1]: 91 % of control; T/C [2]: 91 % of control; T/C [3]: 87 % of control

What does the source list for `CC(=O)[C@@]12OC(C)(C)O[C@@H]1C[C@H]1[C@@H]3C[C@H](C)C4=CC(=O)CC[C@]4(C)[C@H]3CC[C@@]12C`?
T/C [2]: 104 % of control; T/C [4]: 109 % of control; T/C [3]: 104 % of control; T/C [5]: 95 % of control; T/C [6]: 104 % of control

Which results are given for `CC1(C)C=C(C(N)=O)C(C)(C)N1O`?
T/C (dose: 100.0 mg/kg/injection, schedule: Q01DX001 (ip), vehicle: Klucel (hydroxypropylcellulose) (HPC)): 100 % of control; T/C (dose: 200.0 mg/kg/injection, schedule: Q01DX001 (ip), vehicle: Klucel (hydroxypropylcellulose) (HPC)): 88 % of control; T/C (dose: 400.0 mg/kg/injection, schedule: Q01DX001 (ip), vehicle: Klucel (hydroxypropylcellulose) (HPC)): 96 % of control

With `COC1=C(c2ccccc2)C(=O)CCc2ccccc21` as the molecule, how does the T/C [7] read?
The T/C was 100 % of control.

What about the T/C [8] of the same molecule?
Its T/C is 100 % of control.

And the T/C [9]?
The T/C was 100 % of control.

What does the source list for `O=[N+]([O-])c1ccc(N2CCN(CCO)CC2)c2nonc12`?
T/C (dose: 15.0 mg/kg/injection, schedule: Q01DX009 (ip), vehicle: saline with Tween-80): 100 % of control; T/C (dose: 25.0 mg/kg/injection, schedule: Q04DX003 (ip), vehicle: saline with Tween-80): 97 % of control; T/C (dose: 30.0 mg/kg/injection, schedule: Q01DX009 (ip), vehicle: saline with Tween-80): 97 % of control; T/C (dose: 50.0 mg/kg/injection, schedule: Q04DX003 (ip), vehicle: saline with Tween-80): 96 % of control

For `CC1NC(=O)C2Cc3ccc(O)c(c3)Oc3cccc(c3)C(O)C(C(=O)N2C)N(C)C(=O)C(C)NC(=O)C(Cc2ccc(O)c(O)c2)N(C)C(=O)C(C)NC1=O` (stereo not given), which T/C (dose: 0.25 mg/kg/injection, schedule: Q01DX009 (ip), vehicle: distilled water + Tween-80) is on record?
Its T/C is 94 % of control.

What about the T/C (dose: 0.5 mg/kg/injection, schedule: Q01DX009 (ip), vehicle: distilled water + Tween-80) of the same molecule?
The T/C was 99 % of control.

What about the T/C (dose: 1.0 mg/kg/injection, schedule: Q01DX009 (ip), vehicle: distilled water + Tween-80) of the same molecule?
Its T/C is 94 % of control.

What about the T/C (dose: 2.0 mg/kg/injection, schedule: Q01DX009 (ip), vehicle: distilled water + Tween-80) of the same molecule?
The T/C was 96 % of control.

What about the T/C (dose: 4.0 mg/kg/injection, schedule: Q01DX009 (ip), vehicle: distilled water + Tween-80) of the same molecule?
The T/C was 99 % of control.

What about the T/C (dose: 8.0 mg/kg/injection, schedule: Q01DX009 (ip), vehicle: distilled water + Tween-80) of the same molecule?
The T/C was 99 % of control.

For `NC(=O)c1cc(O)c(Br)c(O)c1`, which T/C (dose: 100.0 mg/kg/injection, schedule: Q01DX001 (ip), vehicle: saline) is on record?
Its T/C is 100 % of control.

What about the T/C (dose: 200.0 mg/kg/injection, schedule: Q01DX001 (ip), vehicle: saline) of the same molecule?
The T/C was 109 % of control.

And the T/C (dose: 400.0 mg/kg/injection, schedule: Q01DX001 (ip), vehicle: saline)?
Its T/C is 95 % of control.

Which results are given for `CC1(C)CC2(OC2c2ccccc2)C(C)(O)c2ccccc21` (stereo not given)?
T/C [10]: 95 % of control; T/C [7]: 110 % of control; T/C (dose: 200.0 mg/kg/injection, schedule: Q01DX009 (ip), vehicle: Klucel (hydroxypropylcellulose) (HPC)): 90 % of control; T/C [8]: 105 % of control; T/C (dose: 400.0 mg/kg/injection, schedule: Q01DX009 (ip), vehicle: Klucel (hydroxypropylcellulose) (HPC)): 100 % of control; T/C [9]: 105 % of control

What does the source list for `CCCCN1C/C(=C\c2ccc(Br)cc2)C(=O)/C(=C/c2ccc(Br)cc2)C1`?
T/C (dose: 6.25 mg/kg/injection, schedule: Q01DX005 (ip), vehicle: saline with Tween-80): 91 % of control; T/C (dose: 12.5 mg/kg/injection, schedule: Q01DX005 (ip), vehicle: saline with Tween-80): 95 % of control

With `OC(c1ccccc1)c1ccccc1` as the molecule, how does the T/C (dose: 100.0 mg/kg/injection, schedule: Q01DX001 (ip), vehicle: other) read?
Its T/C is 95 % of control.

What about the T/C (dose: 200.0 mg/kg/injection, schedule: Q01DX001 (ip), vehicle: other) of the same molecule?
Its T/C is 104 % of control.

What about the T/C (dose: 400.0 mg/kg/injection, schedule: Q01DX001 (ip), vehicle: other) of the same molecule?
The T/C was 100 % of control.

`CC(=O)c1c(C)oc(C)c1C(C)=O` was tested. Which T/C [4] did it give?
Its T/C is 103 % of control.

And the T/C [5]?
The T/C was 111 % of control.

What about the T/C [6] of the same molecule?
Its T/C is 96 % of control.

How did the T/C (dose: 3.1 mg/kg/injection, schedule: Q04DX003 (ip), vehicle: saline) turn out when `C[n+]1c(-c2ccccc2)c2cc(N)ccc2c2ccccc21` was run?
Its T/C is 110 % of control.

And the T/C (dose: 6.6 mg/kg/injection, schedule: Q01DX009 (ip), vehicle: saline)?
Its T/C is 153 % of control.

What about the T/C (dose: 10.0 mg/kg/injection, schedule: Q01DX009 (ip), vehicle: saline) of the same molecule?
Its T/C is 165 % of control and 181 % of control.

And the T/C (dose: 10.0 mg/kg/injection, schedule: Q04DX003 (ip), vehicle: saline)?
The T/C was 122 % of control.

What does the source list for `COC(=O)CC(N)C(=O)OC` (stereo not given)?
T/C [11]: 102 % of control; T/C [12]: 110 % of control; T/C [13]: 103 % of control

With `CC(C)c1nc(-c2ccccc2)c(-c2ccccc2)[nH]1` as the molecule, how does the T/C [4] read?
The T/C was 100 % of control.

And the T/C [5]?
Its T/C is 104 % of control.

What about the T/C [6] of the same molecule?
Its T/C is 100 % of control.

Which results are given for `OCC(O)C(O)C(O)C(O)CO` (stereo not given)?
T/C (dose: 100.0 mg/kg/injection, schedule: Q01DX010 (ip), vehicle: carboxymethylcellulose (CMC)): 100 % of control; T/C (dose: 100.0 mg/kg/injection, schedule: Q01DX010 (ip), vehicle: saline): 95 % of control; T/C (dose: 400.0 mg/kg/injection, schedule: Q01DX010 (ip), vehicle: carboxymethylcellulose (CMC)): 100 % of control; T/C (dose: 400.0 mg/kg/injection, schedule: Q01DX010 (ip), vehicle: saline): 105 % of control and 110 % of control

`C/C1=C/C2=CC(C)C[C@@H]2C(=O)[C@]2(C)C(=O)CC(C)(C)[C@H]2CC1=O` (stereo not given in full) was tested. Which T/C (dose: 0.12 mg/kg/injection, schedule: Q01DX009 (ip), vehicle: alcohol) did it give?
The T/C was 106 % of control.

What about the T/C (dose: 0.25 mg/kg/injection, schedule: Q01DX009 (ip), vehicle: alcohol) of the same molecule?
Its T/C is 122 % of control.

What about the T/C (dose: 1.4 mg/kg/injection, schedule: Q01DX009 (ip), vehicle: alcohol) of the same molecule?
Its T/C is 108 % of control.

What about the T/C (dose: 2.2 mg/kg/injection, schedule: Q01DX009 (ip), vehicle: alcohol) of the same molecule?
The T/C was 110 % of control.

What does the source list for `O=C1NC(=O)C2C3C=CC(C12)C1C2C(=O)NC(=O)C2C31` (stereo not given)?
T/C (dose: 12.5 mg/kg/injection, schedule: Q01DX009 (ip), vehicle: saline with Tween-80): 108 % of control; T/C [1]: 168 % of control

For `CCOP1(=O)N(C)CCN1C`, which T/C [12] is on record?
Its T/C is 95 % of control.

For `C=C1C(=O)OC2/C=C(\C)CC/C=C(/C)CC(O)C12` (stereo not given), which T/C (dose: 5.0 mg/kg/injection, schedule: Q04DX003 (ip), vehicle: saline with Tween-80) is on record?
Its T/C is 98 % of control.

And the T/C (dose: 10.0 mg/kg/injection, schedule: Q04DX003 (ip), vehicle: saline with Tween-80)?
The T/C was 114 % of control.

What about the T/C (dose: 20.0 mg/kg/injection, schedule: Q04DX003 (ip), vehicle: saline with Tween-80) of the same molecule?
The T/C was 98 % of control.

`CC[C@H](CC[C@@H](C)[C@H]1CC[C@H]2[C@@H]3CC[C@H]4C[C@@H](O)CC[C@]4(C)[C@H]3CC[C@]12C)C(C)C` was tested. Which T/C [4] did it give?
The T/C was 100 % of control.

And the T/C [3]?
The T/C was 95 % of control.

And the T/C (dose: 400.0 mg/kg/injection, schedule: Q01DX009 (ip), vehicle: saline with Tween-80)?
The T/C was 100 % of control.

What about the T/C [6] of the same molecule?
The T/C was 86 % of control.

With `N=C(N)SCCN1C(=O)NC(c2ccccc2)(c2ccccc2)C1=O` as the molecule, how does the T/C (dose: 6.25 mg/kg/injection, schedule: Q01DX009 (ip), vehicle: saline) read?
The T/C was 96 % of control and 99 % of control.

And the T/C (dose: 12.5 mg/kg/injection, schedule: Q01DX009 (ip), vehicle: saline)?
Its T/C is 90 % of control and 104 % of control.

And the T/C [11]?
The T/C was 93 % of control and 105 % of control.

And the T/C [12]?
Its T/C is 102 % of control and 105 % of control.

What about the T/C [13] of the same molecule?
The T/C was 106 % of control and 120 % of control.

For `COc1cc2c(cc1OC)C1CNCC1C(c1cc(OC)c(OC)c(OC)c1)C2` (stereo not given), which T/C (dose: 12.5 mg/kg/injection, schedule: Q01DX009 (ip), vehicle: Klucel (hydroxypropylcellulose) (HPC)) is on record?
The T/C was 105 % of control.

And the T/C (dose: 25.0 mg/kg/injection, schedule: Q01DX009 (ip), vehicle: Klucel (hydroxypropylcellulose) (HPC))?
Its T/C is 100 % of control.

What about the T/C (dose: 50.0 mg/kg/injection, schedule: Q01DX009 (ip), vehicle: Klucel (hydroxypropylcellulose) (HPC)) of the same molecule?
Its T/C is 100 % of control.

And the T/C [10]?
Its T/C is 90 % of control.

What does the source list for `CS(C)=O`?
T/C (dose: 200.0 mg/kg/injection, schedule: Q01DX009 (ip), vehicle: saline): 100 % of control; T/C (dose: 400.0 mg/kg/injection, schedule: Q01DX009 (ip), vehicle: saline): 100 % of control; T/C (dose: 600.0 mg/kg/injection, schedule: Q01DX009 (ip), vehicle: saline): 100 % of control; T/C (dose: 800.0 mg/kg/injection, schedule: Q01DX009 (ip), vehicle: saline): 95 % of control

For `CCOC(=O)CNCc1ccc(Cl)c(Cl)c1`, which T/C (dose: 50.0 mg/kg/injection, schedule: Q04DX003 (ip), vehicle: water) is on record?
Its T/C is 111 % of control.

And the T/C (dose: 100.0 mg/kg/injection, schedule: Q04DX003 (ip), vehicle: water)?
Its T/C is 113 % of control.

What about the T/C (dose: 200.0 mg/kg/injection, schedule: Q04DX003 (ip), vehicle: water) of the same molecule?
The T/C was 111 % of control.
